# Measured values published in patent publication EP2496579B1 (priority 2009, dated 2011).
# Legend:
# [1] = target: T1, agonist site of the human dopamine D5 receptor (Homo sapiens, UniProt P21918); test: Human dopamine D5 receptor (agonist radioligand) binding assay; conditions: test compound at 1 µmole; 7.5 nM [3H]dopamine; transfected GH4 cells; inhibition of control radioligand specific binding; one single experiment
# T1 construct: expressed in transfected cells; host or cells: GH4 cells (membrane homogenates)
# Source text: (§1) Four illustrative compounds of this invention have each been tested at a concentration of 1 µmole in a series of 6 binding assays for various […], including dopaminic receptors, neuronal nicotinic receptors and muscular nicotinic receptors. Details of each binding assay procedure are given below.
# Human dopamine D5 receptor (agonist radioligand):
# The purpose is to evaluate the affinity of compounds for the agonist site of the human dopamine D5 receptor in transfected GH4 cells determined in a radioligand binding assay according to Sunahara et al in Nature (1991) 350:614. The experimental protocol is as follows. Cell membrane homogenates (120 µg protein) are incubated for 60 minutes at 22°C with 7.5 nM [^3H]dopamine in the absence or presence of the test compound in a buffer containing 20 mM Tris-HCl (pH 7.4), 5 mM MgCl2, 0.8 mM DTT, 0.3 mM ascorbic acid and 0.1 mM pyrocatechol. Nonspecific binding is determined in the presence of 10 µM SCH 23390. Following incubation, the samples are filtered rapidly under vacuum through glass fiber filters (GF/B, Packard) 55re-soaked with 0.3% PEI and rinsed several times with ice-cold 50 mM Tris-HCl using a 96-sample cell harvester (Unifilter, Packard). The filters are dried then counted for radioactivity in a scintillation counter (Topcount, Packard) using a scintillation cocktail (Microscint 0, Packard). The results are expressed as a percent inhibition of the control radioligand specific binding. The standard reference compound is dopamine, which is tested in each experiment at several concentrations to obtain a competition curve from which its IC50 is calculated, and from which the % inhibition at 1 µM as indicated in the following table is obtained.
# [2] = target: human α4β2 neuronal nicotinic receptor (Homo sapiens, UniProt P17787+P43681); test: Neuronal nicotinic receptor (α-BGTX-insensitive) (agonist radioligand) binding assay; conditions: test compound at 1 µmole; 0.6 nM [3H]cytisine; transfected SH-SY5Y cells; inhibition of control radioligand specific binding; one single experiment; read-out: % inhibition, N neuronal alpha-BGTX-insensitive (alpha4beta 2) (agonist radioligand)
# Source text: as §1
# Neuronal nicotinic receptor (α-BGTX-insensitive) (agonists radioligand):
# The purpose is to evaluate the affinity of compounds for the human α4β2 neuronal nicotinic receptor expressed in transfected SH-SY5Y cells, determined in a radioligand binding assay according to Gopalakrishnan et al in J. Pharmacol. Exp. Ther. (1996) 276:289. The experimental protocol is as follows. Cell membrane homogenates (30 µg protein) are incubated for 120 min at 4°C with 0.6 nM [^3H]cytisine in the absence or presence of the test compound in a buffer containing 50 mM Tris-HCl (pH 7.4), 120 mM NaCl, 5 mM KCI, 2.5 mM CaCl2 and 1 mM MgCl2. Nonspecific binding is determined in the presence of 10 µM nicotine bitartrate. Following incubation, the samples are filtered rapidly under vacuum through glass fiber filters (GF/B, Packard) presoaked with 0.3% PEI and rinsed several times with ice-cold 50 mM Tris-HCl using a 96-sample cell harvester (Unifilter, Packard). The filters are dried then counted for radioactivity in a scintillation counter (Topcount, Packard) using a scintillation cocktail (Microscint 0, Packard). The results are expressed as a percent inhibition of the control radioligand specific binding. The standard reference compound is nicotine bitartrate, which is tested in each experiment at several concentrations to obtain a competition curve from which its IC50 is calculated, and from which the % inhibition at 1 µM as indicated in the following table is obtained.
# [3] = target: human α7 neuronal nicotinic receptor (Homo sapiens, UniProt P36544); test: biochemical; format: binding; conditions: read-out: % inhibition, N neuronal alpha -BGTX-sensitive (alpha 7) (antagonist radioligand)
# [4] = target: human muscle-type nicotinic receptor (Homo sapiens, UniProt P02708+P07510+Q07001); test: biochemical; format: binding; conditions: read-out: % inhibition, N muscle-type (h) (antagonist radioligand)
# [5] = target: T2, human dopamine D1 receptor (Homo sapiens, UniProt P21728); test: Human dopamine D1 receptor (antagonist radioligand) binding assay; conditions: test compound at 1 µmole; 0.3 nM [3H]SCH 23390; transfected CHO cells; inhibition of control radioligand specific binding; one single experiment
# T2 construct: expressed in transfected cells; host or cells: CHO cells (membrane homogenates)
# Source text: as §1
# Human dopamine D1 receptor (antagonist radioligand):
# The purpose is to evaluate the affinity of compounds for the human dopamine D1 receptor in transfected CHO cells determined in a radioligand binding assay according to Zhou et al in Nature (1990) 347:76. The experimental protocol is as follows. Cell membrane homogenates (48 µg protein) are incubated for 60 minutes at 22°C with 0.3 nM [^3H]SCH 23390 in the absence or presence of the test compound in a buffer containing 50 mM Tris-HCl (pH 7.4), 5 mM KCI, 5 mM MgCl2, 1.5 mM CaCl2 and 5 mM EDTA. Non-specific binding is determined in the presence of 1 µM SCH 23390. […] The filters are dried then counted for radioactivity in a scintillation counter (Topcount, Packard) using a scintillation cocktail (Microscint 0, Packard). The results are expressed as a percent inhibition of the control radioligand specific binding. […]
# [6] = target: T3, Human dopamine D5 receptor (Homo sapiens, UniProt P21918); test: Human dopamine D5 receptor (antagonist radioligand) binding assay; conditions: test compound at 1 µmole; 0.3 nM [3H]SCH 23390; transfected GH4 cells; inhibition of control radioligand specific binding; one single experiment
# T3 construct: expressed in transfected cells; host or cells: GH4 cells (membrane homogenates)
# Source text: as §1
# Human dopamine D5 receptor (antagonist radioligand):
# The purpose is to evaluate the affinity of compounds for the human dopamine […] in transfected GH4 cells determined in a radioligand binding assay according to Sunahara et al in Nature (1991) 350:614. The experimental protocol is as follows. Cell membrane homogenates (20 µg protein) are incubated for 60 minutes at 22°C with 0.3 nM [^3H]SCH 23390 in the absence or presence of the test compound in a buffer containing 50 mM Tris-HCl (pH 7.4), 120 mM NaCl, 5 mM KCI, 5 mM MgCl2 and 1 mM EDTA. Nonspecific binding is determined in the presence of 10 µM SCH 23390. […] The filters are dried then counted for radioactivity in a scintillation counter (Topcount, Packard) using a scintillation cocktail (Microscint 0, Packard). The results are expressed as a percent inhibition of the control radioligand specific binding. […]
# [7] = relative to morphine; background statement; cited from earlier work
# T1 sequence (P21918 whole entry): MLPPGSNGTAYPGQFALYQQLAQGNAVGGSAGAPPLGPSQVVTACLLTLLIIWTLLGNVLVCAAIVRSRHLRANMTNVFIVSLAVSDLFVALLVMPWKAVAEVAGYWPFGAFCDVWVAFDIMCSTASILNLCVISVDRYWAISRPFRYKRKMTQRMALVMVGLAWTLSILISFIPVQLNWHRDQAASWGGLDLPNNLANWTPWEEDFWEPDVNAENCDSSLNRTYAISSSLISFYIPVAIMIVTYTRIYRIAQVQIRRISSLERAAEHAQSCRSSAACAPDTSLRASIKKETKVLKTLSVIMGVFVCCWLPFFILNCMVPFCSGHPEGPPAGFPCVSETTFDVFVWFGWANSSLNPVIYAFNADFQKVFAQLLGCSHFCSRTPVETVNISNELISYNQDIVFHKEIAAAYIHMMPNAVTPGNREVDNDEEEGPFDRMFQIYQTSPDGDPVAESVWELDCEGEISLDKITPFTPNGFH
# Sequence of human α7 neuronal nicotinic receptor (P36544 23-502): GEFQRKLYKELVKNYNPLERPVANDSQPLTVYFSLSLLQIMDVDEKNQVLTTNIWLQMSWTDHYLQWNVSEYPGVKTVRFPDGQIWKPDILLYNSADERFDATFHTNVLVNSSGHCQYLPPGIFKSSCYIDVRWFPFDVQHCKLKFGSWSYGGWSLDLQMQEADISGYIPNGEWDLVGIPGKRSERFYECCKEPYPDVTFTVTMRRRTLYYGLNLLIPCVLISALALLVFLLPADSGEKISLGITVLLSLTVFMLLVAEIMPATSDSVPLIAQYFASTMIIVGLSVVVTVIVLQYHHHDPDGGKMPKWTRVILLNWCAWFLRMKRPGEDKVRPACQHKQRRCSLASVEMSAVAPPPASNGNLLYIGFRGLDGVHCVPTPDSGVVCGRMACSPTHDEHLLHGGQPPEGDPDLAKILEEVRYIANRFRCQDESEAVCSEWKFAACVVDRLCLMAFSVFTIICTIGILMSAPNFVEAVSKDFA
# Sequence of human muscle-type nicotinic receptor (P02708 21-457): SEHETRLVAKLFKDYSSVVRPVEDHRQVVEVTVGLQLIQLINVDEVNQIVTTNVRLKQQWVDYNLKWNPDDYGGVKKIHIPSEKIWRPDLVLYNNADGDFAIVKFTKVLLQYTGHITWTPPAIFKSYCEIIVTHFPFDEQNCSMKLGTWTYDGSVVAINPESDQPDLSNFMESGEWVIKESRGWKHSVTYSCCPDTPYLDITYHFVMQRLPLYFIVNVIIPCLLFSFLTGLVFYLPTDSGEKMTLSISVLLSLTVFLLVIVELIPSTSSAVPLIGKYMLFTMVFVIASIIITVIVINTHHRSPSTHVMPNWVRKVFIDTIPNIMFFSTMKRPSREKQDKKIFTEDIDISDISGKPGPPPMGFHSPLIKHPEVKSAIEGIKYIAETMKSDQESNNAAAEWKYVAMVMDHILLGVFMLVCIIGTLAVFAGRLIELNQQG
# Sequence of human muscle-type nicotinic receptor (P07510 23-517): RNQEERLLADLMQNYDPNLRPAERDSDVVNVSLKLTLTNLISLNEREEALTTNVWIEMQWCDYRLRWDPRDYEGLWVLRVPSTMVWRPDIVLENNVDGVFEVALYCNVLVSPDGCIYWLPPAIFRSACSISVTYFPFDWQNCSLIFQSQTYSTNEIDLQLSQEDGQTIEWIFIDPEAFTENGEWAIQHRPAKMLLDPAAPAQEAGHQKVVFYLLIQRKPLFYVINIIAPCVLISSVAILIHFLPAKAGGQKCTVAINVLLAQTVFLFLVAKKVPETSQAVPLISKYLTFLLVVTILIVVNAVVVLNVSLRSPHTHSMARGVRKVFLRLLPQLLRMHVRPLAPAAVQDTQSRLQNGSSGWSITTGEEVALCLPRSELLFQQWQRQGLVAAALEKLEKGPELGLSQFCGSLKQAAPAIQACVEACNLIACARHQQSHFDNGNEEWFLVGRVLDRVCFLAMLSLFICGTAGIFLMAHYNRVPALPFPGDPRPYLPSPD
# Sequence of human muscle-type nicotinic receptor (P11230 24-501, further chain): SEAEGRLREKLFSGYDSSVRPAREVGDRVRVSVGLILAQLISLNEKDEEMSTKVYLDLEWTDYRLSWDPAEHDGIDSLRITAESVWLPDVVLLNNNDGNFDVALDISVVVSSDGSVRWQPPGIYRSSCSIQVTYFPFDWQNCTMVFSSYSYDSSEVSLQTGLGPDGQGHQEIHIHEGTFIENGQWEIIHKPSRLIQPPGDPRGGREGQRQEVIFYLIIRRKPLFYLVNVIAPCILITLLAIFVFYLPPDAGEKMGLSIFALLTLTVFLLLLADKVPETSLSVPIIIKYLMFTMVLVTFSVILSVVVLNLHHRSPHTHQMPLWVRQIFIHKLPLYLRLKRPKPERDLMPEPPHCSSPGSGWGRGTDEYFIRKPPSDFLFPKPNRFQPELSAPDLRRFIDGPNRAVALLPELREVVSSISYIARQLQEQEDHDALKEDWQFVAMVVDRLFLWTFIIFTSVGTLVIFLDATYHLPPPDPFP
# Sequence of human muscle-type nicotinic receptor (Q07001 22-517): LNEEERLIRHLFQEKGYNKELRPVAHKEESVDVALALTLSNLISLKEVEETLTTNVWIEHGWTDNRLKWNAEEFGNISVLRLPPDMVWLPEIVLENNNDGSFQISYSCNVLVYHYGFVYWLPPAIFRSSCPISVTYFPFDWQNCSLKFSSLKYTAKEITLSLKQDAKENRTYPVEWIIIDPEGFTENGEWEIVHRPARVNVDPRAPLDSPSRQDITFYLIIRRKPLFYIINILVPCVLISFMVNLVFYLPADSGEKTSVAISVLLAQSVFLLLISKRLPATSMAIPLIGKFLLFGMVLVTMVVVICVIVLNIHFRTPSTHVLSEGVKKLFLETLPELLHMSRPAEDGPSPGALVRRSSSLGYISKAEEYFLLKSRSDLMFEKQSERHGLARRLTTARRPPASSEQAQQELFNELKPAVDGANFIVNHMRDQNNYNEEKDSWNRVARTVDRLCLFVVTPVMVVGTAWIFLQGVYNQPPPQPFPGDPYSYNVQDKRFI
# Sequence of human α4β2 neuronal nicotinic receptor (P43681 29-627 limits assumed): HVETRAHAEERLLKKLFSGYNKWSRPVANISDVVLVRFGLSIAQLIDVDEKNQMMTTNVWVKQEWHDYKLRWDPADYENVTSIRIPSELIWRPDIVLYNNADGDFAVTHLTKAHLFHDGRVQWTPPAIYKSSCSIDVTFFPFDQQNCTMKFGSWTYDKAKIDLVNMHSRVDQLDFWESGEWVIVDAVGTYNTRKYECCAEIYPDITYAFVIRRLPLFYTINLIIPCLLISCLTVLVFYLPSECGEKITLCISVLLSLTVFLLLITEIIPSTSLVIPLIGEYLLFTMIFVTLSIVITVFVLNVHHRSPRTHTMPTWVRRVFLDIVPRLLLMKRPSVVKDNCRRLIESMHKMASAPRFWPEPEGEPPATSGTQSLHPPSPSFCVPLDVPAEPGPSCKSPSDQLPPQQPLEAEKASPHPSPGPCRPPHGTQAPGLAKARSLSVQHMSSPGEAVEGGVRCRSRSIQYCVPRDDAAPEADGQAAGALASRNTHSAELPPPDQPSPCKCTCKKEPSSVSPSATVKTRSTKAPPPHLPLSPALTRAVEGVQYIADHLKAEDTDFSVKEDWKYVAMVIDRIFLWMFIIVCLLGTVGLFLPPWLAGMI
# Sequence of human α4β2 neuronal nicotinic receptor (P17787 26-502): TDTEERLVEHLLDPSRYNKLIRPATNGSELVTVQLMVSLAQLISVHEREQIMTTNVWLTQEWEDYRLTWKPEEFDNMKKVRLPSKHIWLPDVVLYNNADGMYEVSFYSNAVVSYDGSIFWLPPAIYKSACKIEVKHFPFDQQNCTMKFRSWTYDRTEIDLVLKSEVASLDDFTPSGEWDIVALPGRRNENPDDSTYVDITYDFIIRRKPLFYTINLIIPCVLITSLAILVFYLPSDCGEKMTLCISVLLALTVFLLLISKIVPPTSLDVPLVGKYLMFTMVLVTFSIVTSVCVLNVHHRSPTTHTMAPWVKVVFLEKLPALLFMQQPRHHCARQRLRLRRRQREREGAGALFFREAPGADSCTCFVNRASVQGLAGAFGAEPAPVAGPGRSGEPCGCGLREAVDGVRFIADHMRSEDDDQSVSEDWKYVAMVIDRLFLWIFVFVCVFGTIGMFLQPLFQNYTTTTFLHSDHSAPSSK
# T2 sequence (P21728 whole entry): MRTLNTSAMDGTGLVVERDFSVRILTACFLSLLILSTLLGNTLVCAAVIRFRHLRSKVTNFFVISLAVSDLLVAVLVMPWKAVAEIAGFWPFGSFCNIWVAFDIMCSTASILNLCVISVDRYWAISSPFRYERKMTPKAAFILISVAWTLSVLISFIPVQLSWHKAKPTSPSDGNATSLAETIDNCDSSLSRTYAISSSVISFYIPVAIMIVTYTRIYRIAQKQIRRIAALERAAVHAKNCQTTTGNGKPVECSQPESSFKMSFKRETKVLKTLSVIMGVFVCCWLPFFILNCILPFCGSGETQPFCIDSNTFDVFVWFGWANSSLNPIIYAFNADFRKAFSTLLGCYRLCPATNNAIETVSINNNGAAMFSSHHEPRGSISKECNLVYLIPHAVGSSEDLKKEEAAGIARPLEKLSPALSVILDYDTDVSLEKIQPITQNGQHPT
# T3 sequence (P21918 whole entry): as the sequence (P21918 whole entry) above
SMILES,inhibition at 1 µM [1] [%],inhibition at 1 µM [2] [%],inhibition at 50 pM [3] [%],inhibition at 0.0005 µM [4] [%],inhibition at 1 µM [5] [%],inhibition at 1 µM [6] [%],"analgesic potency, higher than that of morphine [7]"
CCN1CCC2CC1(C(=O)c1ccc(Cl)nc1)C2 [Comp.9m],-13,4,-1,-8,,,
OC(c1cccnc1)C12CC(CCN1)C2 (stereo not drawn) [Comp.11],,,-1,17,,,
CCN1CCC2CC1(C(O)c1cccnc1)C2 (stereo not drawn) [Comp.19a],-2,24,3,33,9,,
NCC12CC(CCN1Cc1ccccn1)C2 [Comp.20],6,11,12,32,-3,31,
Clc1ccc(C2CC3CCC2N3)cn1 (stereo not drawn) [epibatidine],,,,,,,about 200 fold
